From ChEMBL document CHEMBL5143672, “New diarylpentanoids and chalcones as potential antimicrobial adjuvants” (2022)

System: Escherichia coli
Test: Antibacterial activity against Escherichia coli ATCC 25922 assessed as inhibition of bacterial growth by broth microdilution method
Type: functional
Conditions: not given

Row | SMILES | MIC [µg/mL]
1 | O=C1/C(=C/c2ccc(Cl)cc2Cl)COC/C1=C\c1ccc(Cl)cc1Cl | > 64
2 | COc1ccccc1/C=C1\CC/C(=C\c2ccccc2OC)C1=O | > 64
3 | COc1cc(/C=C2\COC/C(=C\c3cc(OC)cc(OC)c3)C2=O)cc(OC)c1 | > 64
4 | O=C1/C(=C/c2ccc(C(F)(F)F)cc2)COC/C1=C\c1ccc(C(F)(F)F)cc1 | > 64
5 | Cc1ccc(/C=C2\COC/C(=C\c3ccc(C)cc3)C2=O)cc1 | > 64
6 | O=C1/C(=C/c2ccccc2Cl)COC/C1=C\c1ccccc1Cl | > 64

System: Pseudomonas aeruginosa
Test: Antibacterial activity against Pseudomonas aeruginosa ATCC 27853 assessed as inhibition of bacterial growth by broth microdilution method
Type: functional
Conditions: not given

Row | SMILES | MIC [µg/mL]
7 | O=C1/C(=C/c2ccc(Cl)cc2Cl)COC/C1=C\c1ccc(Cl)cc1Cl | > 64
8 | COc1ccccc1/C=C1\CC/C(=C\c2ccccc2OC)C1=O | > 64
9 | COc1cc(/C=C2\COC/C(=C\c3cc(OC)cc(OC)c3)C2=O)cc(OC)c1 | > 64
10 | O=C1/C(=C/c2ccc(C(F)(F)F)cc2)COC/C1=C\c1ccc(C(F)(F)F)cc1 | > 64
11 | Cc1ccc(/C=C2\COC/C(=C\c3ccc(C)cc3)C2=O)cc1 | > 64
12 | O=C1/C(=C/c2ccccc2Cl)COC/C1=C\c1ccccc1Cl | > 64

System: Salmonella typhimurium
Test: Antibacterial activity against Salmonella enterica serovar typhimurium SL1344 (SE03) assessed as inhibition of bacterial growth by broth microdilution method
Type: functional, Salmonella enterica subsp. enterica serovar Typhimurium
Conditions: not given

Row | SMILES | MIC [µg/mL]
13 | O=C1/C(=C/c2ccc(Cl)cc2Cl)COC/C1=C\c1ccc(Cl)cc1Cl | > 64
14 | COc1ccccc1/C=C1\CC/C(=C\c2ccccc2OC)C1=O | > 64
15 | COc1cc(/C=C2\COC/C(=C\c3cc(OC)cc(OC)c3)C2=O)cc(OC)c1 | > 64
16 | O=C1/C(=C/c2ccc(C(F)(F)F)cc2)COC/C1=C\c1ccc(C(F)(F)F)cc1 | > 64
17 | Cc1ccc(/C=C2\COC/C(=C\c3ccc(C)cc3)C2=O)cc1 | > 64
18 | O=C1/C(=C/c2ccccc2Cl)COC/C1=C\c1ccccc1Cl | > 64

System: Staphylococcus aureus
Test: Antibacterial activity against Staphylococcus aureus ATCC 25923 assessed as inhibition of bacterial growth by broth microdilution method
Type: functional
Conditions: not given

Row | SMILES | MIC [µg/mL]
19 | O=C1/C(=C/c2ccc(Cl)cc2Cl)COC/C1=C\c1ccc(Cl)cc1Cl | > 64
20 | COc1ccccc1/C=C1\CC/C(=C\c2ccccc2OC)C1=O | > 64
21 | COc1cc(/C=C2\COC/C(=C\c3cc(OC)cc(OC)c3)C2=O)cc(OC)c1 | > 64
22 | O=C1/C(=C/c2ccc(C(F)(F)F)cc2)COC/C1=C\c1ccc(C(F)(F)F)cc1 | > 64
23 | Cc1ccc(/C=C2\COC/C(=C\c3ccc(C)cc3)C2=O)cc1 | > 64
24 | O=C1/C(=C/c2ccccc2Cl)COC/C1=C\c1ccccc1Cl | > 64

System: Enterococcus faecalis
Test: Antibacterial activity against Enterococcus faecalis ATCC 29212 assessed as inhibition of bacterial growth by broth microdilution method
Type: functional
Conditions: not given

Row | SMILES | MIC [µg/mL]
25 | O=C1/C(=C/c2ccc(Cl)cc2Cl)COC/C1=C\c1ccc(Cl)cc1Cl | > 64
26 | COc1ccccc1/C=C1\CC/C(=C\c2ccccc2OC)C1=O | > 64
27 | COc1cc(/C=C2\COC/C(=C\c3cc(OC)cc(OC)c3)C2=O)cc(OC)c1 | > 64
28 | O=C1/C(=C/c2ccc(C(F)(F)F)cc2)COC/C1=C\c1ccc(C(F)(F)F)cc1 | > 64
29 | Cc1ccc(/C=C2\COC/C(=C\c3ccc(C)cc3)C2=O)cc1 | > 64
30 | O=C1/C(=C/c2ccccc2Cl)COC/C1=C\c1ccccc1Cl | > 64

System: Staphylococcus aureus
Test: Antibacterial activity against methicillin and ofloxacin-resistant Staphylococcus aureus 272123 assessed as inhibition of bacterial growth by broth microdilution method
Type: functional
Conditions: not given

Row | SMILES | MIC [µg/mL]
31 | O=C1/C(=C/c2ccc(Cl)cc2Cl)COC/C1=C\c1ccc(Cl)cc1Cl | > 64
32 | COc1ccccc1/C=C1\CC/C(=C\c2ccccc2OC)C1=O | > 64
33 | COc1cc(/C=C2\COC/C(=C\c3cc(OC)cc(OC)c3)C2=O)cc(OC)c1 | > 64
34 | O=C1/C(=C/c2ccc(C(F)(F)F)cc2)COC/C1=C\c1ccc(C(F)(F)F)cc1 | > 64
35 | Cc1ccc(/C=C2\COC/C(=C\c3ccc(C)cc3)C2=O)cc1 | > 64
36 | O=C1/C(=C/c2ccccc2Cl)COC/C1=C\c1ccccc1Cl | > 64

System: Candida albicans
Test: Antifungal activity against Candidia albicans ATCC 10231 assessed as inhibition of fungal growth by broth microdilution method
Type: functional
Conditions: not given

Row | SMILES | MIC [µg/mL]
37 | O=C1/C(=C/c2ccc(Cl)cc2Cl)COC/C1=C\c1ccc(Cl)cc1Cl | > 128
38 | COc1ccccc1/C=C1\CC/C(=C\c2ccccc2OC)C1=O | > 128
39 | COc1cc(/C=C2\COC/C(=C\c3cc(OC)cc(OC)c3)C2=O)cc(OC)c1 | > 128
40 | O=C1/C(=C/c2ccc(C(F)(F)F)cc2)COC/C1=C\c1ccc(C(F)(F)F)cc1 | > 128
41 | Cc1ccc(/C=C2\COC/C(=C\c3ccc(C)cc3)C2=O)cc1 | > 128
42 | O=C1/C(=C/c2ccccc2Cl)COC/C1=C\c1ccccc1Cl | > 128

System: Aspergillus fumigatus
Test: Antifungal activity against Aspergillus fumigatus ATCC 204305 assessed as inhibition of fungal growth by broth microdilution method
Type: functional
Conditions: not given

Row | SMILES | MIC [µg/mL]
43 | O=C1/C(=C/c2ccc(Cl)cc2Cl)COC/C1=C\c1ccc(Cl)cc1Cl | > 128
44 | COc1ccccc1/C=C1\CC/C(=C\c2ccccc2OC)C1=O | > 128
45 | COc1cc(/C=C2\COC/C(=C\c3cc(OC)cc(OC)c3)C2=O)cc(OC)c1 | > 128
46 | O=C1/C(=C/c2ccc(C(F)(F)F)cc2)COC/C1=C\c1ccc(C(F)(F)F)cc1 | > 128
47 | Cc1ccc(/C=C2\COC/C(=C\c3ccc(C)cc3)C2=O)cc1 | > 128
48 | O=C1/C(=C/c2ccccc2Cl)COC/C1=C\c1ccccc1Cl | > 128

System: Trichophyton rubrum
Test: Antifungal activity against Trichophyton rubrum FF5 assessed as inhibition of fungal growth by broth microdilution method
Type: functional
Conditions: not given

Row | SMILES | MIC [µg/mL]
49 | O=C1/C(=C/c2ccc(Cl)cc2Cl)COC/C1=C\c1ccc(Cl)cc1Cl | > 128
50 | COc1ccccc1/C=C1\CC/C(=C\c2ccccc2OC)C1=O | > 128
51 | COc1cc(/C=C2\COC/C(=C\c3cc(OC)cc(OC)c3)C2=O)cc(OC)c1 | > 128
52 | O=C1/C(=C/c2ccc(C(F)(F)F)cc2)COC/C1=C\c1ccc(C(F)(F)F)cc1 | > 128
53 | Cc1ccc(/C=C2\COC/C(=C\c3ccc(C)cc3)C2=O)cc1 | > 128
54 | O=C1/C(=C/c2ccccc2Cl)COC/C1=C\c1ccccc1Cl | > 128

System: Escherichia coli
Test: Antimicrobial adjuvant activity against ESBL-producing Escherichia coli SA/2 assessed as potentiation of cefotaxime-induced antibacterial activity by measuring fold reduction in cefotaxime MIC at 64 ug/ml by broth microdilution method
Type: functional
Conditions: dose 64 µg/ml

Row | SMILES | fold change (FC)
55 | O=C1/C(=C/c2ccc(Cl)cc2Cl)COC/C1=C\c1ccc(Cl)cc1Cl | 2
56 | O=C1/C(=C/c2ccc(C(F)(F)F)cc2)COC/C1=C\c1ccc(C(F)(F)F)cc1 | 2
57 | Cc1ccc(/C=C2\COC/C(=C\c3ccc(C)cc3)C2=O)cc1 | 2
58 | O=C1/C(=C/c2ccccc2Cl)COC/C1=C\c1ccccc1Cl | 2

System: Enterococcus faecalis
Test: Antimicrobial adjuvant activity against Enterococcus faecalis B3/101 assessed as potentiation of vancomycin-induced antibacterial activity by measuring fold reduction in vancomycin MIC at 64 ug/ml by broth microdilution method
Type: functional
Conditions: dose 64 µg/ml

Row | SMILES | fold change (FC)
59 | COc1ccccc1/C=C1\CC/C(=C\c2ccccc2OC)C1=O | 2
60 | COc1cc(/C=C2\COC/C(=C\c3cc(OC)cc(OC)c3)C2=O)cc(OC)c1 | 4
61 | Cc1ccc(/C=C2\COC/C(=C\c3ccc(C)cc3)C2=O)cc1 | 2

System: Salmonella enterica subsp. enterica serovar Typhimurium
Test: Inhibition of Multidrug resistance efflux pump in Salmonella enterica serovar typhimurium SL1344 (SE03) assessed as relative fluorescence index using ethidium bromide as substrate at 50 uM by fluorescence based analysis
Conditions: not given

Row | SMILES | RFU
62 | O=C1/C(=C/c2ccc(Cl)cc2Cl)COC/C1=C\c1ccc(Cl)cc1Cl | -0.13
63 | COc1ccccc1/C=C1\CC/C(=C\c2ccccc2OC)C1=O | 0.15
64 | COc1cc(/C=C2\COC/C(=C\c3cc(OC)cc(OC)c3)C2=O)cc(OC)c1 | 0.09
65 | O=C1/C(=C/c2ccc(C(F)(F)F)cc2)COC/C1=C\c1ccc(C(F)(F)F)cc1 | -0.24
66 | Cc1ccc(/C=C2\COC/C(=C\c3ccc(C)cc3)C2=O)cc1 | -0.21
67 | O=C1/C(=C/c2ccccc2Cl)COC/C1=C\c1ccccc1Cl | -0.08

System: not listed separately
Test: Inhibition of Multidrug resistance efflux pump in Staphylococcus aureus 272123 assessed as relative fluorescence index using ethidium bromide as substrate at 50 uM by fluorescence based analysis
Conditions: not given

Row | SMILES | RFU
68 | O=C1/C(=C/c2ccc(Cl)cc2Cl)COC/C1=C\c1ccc(Cl)cc1Cl | -0.25
69 | COc1ccccc1/C=C1\CC/C(=C\c2ccccc2OC)C1=O | -0.39
70 | COc1cc(/C=C2\COC/C(=C\c3cc(OC)cc(OC)c3)C2=O)cc(OC)c1 | 0.25
71 | O=C1/C(=C/c2ccc(C(F)(F)F)cc2)COC/C1=C\c1ccc(C(F)(F)F)cc1 | -0.12
72 | Cc1ccc(/C=C2\COC/C(=C\c3ccc(C)cc3)C2=O)cc1 | -0.24
73 | O=C1/C(=C/c2ccccc2Cl)COC/C1=C\c1ccccc1Cl | -0.16
